Assay results published in US20220033363A1, “HERBICIDALLY ACTIVE SUBSTITUTED PHENYLPYRIMIDINE HYDRAZIDES” (Bayer Aktiengesellschaft, priority 2018, published 2022).

Experiments:
Assay type in all cases: in vivo
Echinochloa crus-galli [1] = assay: Herbicidal pre-emergence action (Method B) against ECHCG; settings: 504 h, scored visually after about 3 weeks vs untreated controls
From the text: (§1) Method B: Herbicidal Pre-Emergence Action Seeds of mono- and dicotyledonous weed plants are placed in plastic pots in sandy loam soil (doubly sown with one species each of mono- or dicotyledonous weed plants per pot) and covered with soil. The compounds of the invention, formulated in the form of wettable powders (WP) or as emulsion concentrates (EC), are then applied onto the surface of the covering soil as aqueous suspension or emulsion with addition of 0.5% additive at a water application rate equivalent to 600 liters per hectare. After the treatment, the pots are placed in a greenhouse and kept under good growth conditions for the trial plants. After about 3 weeks, the effect of the preparations is scored visually in comparison with untreated controls as percentages. For example, 100% action=the plants have died, 0% action=like control plants.

Poa annua [2] = assay: Herbicidal post-emergence action (Method A) against POAAN; settings: 504 h, rated visually after about 3 weeks vs untreated controls; for pest or weed control at 320 g/ha: read-out: Post-emergence action at 320 g/ha against POANN; for pest or weed control at 1280 g/ha: read-out: Post-emergence action at 1280 g/ha against POANN
Method: (§2) Method A: Herbicidal Post-Emergence Action Seeds of mono- and dicotyledonous weed plants are placed in plastic pots in sandy loam soil (twin sowing with one species each of mono- or dicotyledonous weed plants per pot), covered with soil and cultivated in a greenhouse under controlled growth conditions. 2 to 3 weeks after sowing, the test plants are treated at the one-leaf stage. The compounds of the invention, formulated in the form of wettable powders (WP) or as emulsion concentrates (EC), are applied to the green parts of the plants as aqueous suspension or emulsion with addition of 0.5% additive at a water application rate equivalent to 600 liters per hectare. After the test plants have been kept in the greenhouse under optimum growth conditions for about 3 weeks, the activity of the preparations is rated visually in comparison to untreated controls. For example, 100% activity=the plants have died, 0% activity=like control plants.

Matricaria inodora [3] = assay: Herbicidal post-emergence action (Method A) against MATIN; settings: rated visually after about 3 weeks vs untreated controls
Method: as §2

Stellaria media [4] = assay: Herbicidal pre-emergence action (Method B) against STEME; settings: 504 h; for pest or weed control at 320 g/ha: dosage 320 g/ha; for pest or weed control at 1280 g/ha: dosage 1280 g/ha
From the text: as §1

Poa annua [5] = assay: Herbicidal pre-emergence action (Method B) against POAAN; settings: 504 h, scored visually after about 3 weeks vs untreated controls
From the text: as §1

Matricaria inodora [6] = assay: Herbicidal pre-emergence action (Method B) against MATIN; settings: Tripleurospermum inodorum, 504 h, scored visually after about 3 weeks vs untreated controls
From the text: as §1

Amaranthus retroflexus = assay: Herbicidal post-emergence action (Method A) against AMARE; settings: rated visually after about 3 weeks vs untreated controls
Method: as §2

Stellaria media [7] = assay: Herbicidal post-emergence action (Method A) against STEME; settings: 504 h, rated visually after about 3 weeks vs untreated controls
Method: as §2

Lolium rigidum [8] = assay: Herbicidal post-emergence action (Method A) against LOLRI; settings: rated visually after about 3 weeks vs untreated controls; for pest or weed control at 1280 g/ha: Lolium rigidum, post-emergence, 504 h
Method: as §2

harmful plants = assay: Herbicidal post-emergence action (Method A), summary statement; settings: summary of tables A1-A11
Method: as §2

Lolium rigidum [9] = assay: Herbicidal pre-emergence action (Method B) against LOLRI; settings: 504 h, scored visually after about 3 weeks vs untreated controls
From the text: as §1

Echinochloa crus-galli [10] = assay: Herbicidal post-emergence action (Method A) against ECHCG; settings: rated visually after about 3 weeks vs untreated controls; for pest or weed control at 1280 g/ha: Echinochloa crus-galli, post-emergence, 504 h
Method: as §2

Abutilon theophrast = assay: Herbicidal pre-emergence action (Method B) against ABUTH; settings: 1280 g/ha, scored visually after about 3 weeks vs untreated controls
From the text: as §1

SMILES | pest or weed control at 1280 g/ha (Echinochloa crus-galli [1]) [%] | pest or weed control at 320 g/ha (Poa annua [2]) [%] | pest or weed control at 1280 g/ha (Poa annua [2]) [%] | Post-emergence action at 1280 g/ha against MATIN (Matricaria inodora [3]) [%] | pest or weed control at 320 g/ha (Stellaria media [4]) [%] | pest or weed control at 1280 g/ha (Stellaria media [4]) [%] | pest or weed control at 320 g/ha (Poa annua [5]) [%] | pest or weed control at 1280 g/ha (Poa annua [5]) [%] | pest or weed control at 1280 g/ha (Matricaria inodora [6]) [%] | pest or weed control at 320 g/ha (Stellaria media [7]) [%] | pest or weed control at 1280 g/ha (Stellaria media [7]) [%] | pest or weed control at 1280 g/ha (Lolium rigidum [8]) [%] | pest or weed control at 320 g/ha (Lolium rigidum [9]) [%] | pest or weed control at 1280 g/ha (Lolium rigidum [9]) [%] | Post-emergence action at 320 g/ha against ECHCG (Echinochloa crus-galli [10]) [%] | pest or weed control at 1280 g/ha (Echinochloa crus-galli [10]) [%] | further results
CN(N)C(=O)c1nc(C2CC2)ncc1-c1ccccc1Cl [Example I-500, 5-(2-chlorophenyl)-2-cyclopropyl-N-methylpyrimidine-4-carbohydrazide] | 100 | 100 | 100 | 90 | 100 | 100 | 100 | 100 | 100 | 100 | 100 | 90 | 90 | 100 |  |  | pest or weed control at 320 g/ha (Echinochloa crus-galli [1]; 320 g/ha): 90%; Post-emergence action at 320 g/ha against MATIN (Matricaria inodora [3]; 320 g/ha): 90%; Post-emergence action at 1280 g/ha against AMARE (Amaranthus retroflexus): 100%; herbicidal efficacy against harmful plants in the case of post-emergence treatment (harmful plants): good herbicidal efficacy
CCNC(=O)NNC(=O)c1nc(C2CC2)ncc1-c1ccccc1Cl [Example I-552, 2-{[5-(2-chlorophenyl)-2-cyclopropylpyrimidin-4-yl]carbonyl}-N-ethylhydrazinecarboxamide] | 90 | 100 | 100 | 90 | 100 | 100 | 100 | 100 | 100 |  | 100 | 90 | 90 | 90 | 90 | 100 | pest or weed control at 320 g/ha (Matricaria inodora [6]; 320 g/ha): 90%; Post-emergence action at 320 g/ha against LOLRI (Lolium rigidum [8]; 320 g/ha): 90%; Pre-emergence action against ABUTH (Abutilon theophrast): 90%
CCOC(=O)NNC(=O)c1nc(C2CC2)ncc1-c1ccc(F)cc1Cl [Example I-2591, ethyl 2-{[5-(2-chloro-4-fluorophenyl)-2-cyclopropylpyrimidin-4-yl]carbonyl}hydrazinecarboxylate] | 100 | 100 | 100 |  | 100 | 100 | 100 | 100 | 90 |  | 100 |  |  | 100 |  | 90 | 
CC(=O)N(NC(=O)c1nc(C2CC2)ncc1-c1ccccc1Cl)c1ccccn1 [Example I-513, N′-acetyl-5-(2-chlorophenyl)-2-cyclopropyl-N′-(pyridin-2-yl)pyrimidine-4-carbohydrazide] | 100 | 100 | 100 | 90 | 100 | 100 | 100 | 100 | 100 | 100 | 100 | 100 |  | 90 | 100 | 100 | 
